# Assay: Human HepG2 cell viability assay in 384 well format
# Type: toxicity, cell-based
# Design: dose 125 nL, time 70.5 hour; concentration not given beside the values
# Settings: HepG2 cells, read-out: Inhibition
row,SMILES,cytotoxicity at 70.5 h [%]
1,O=C(CC1CCCC1)NCCS(=O)(=O)N1CCN(c2ccccc2)CC1,-3.36
2,O=C(c1ccc(N2CCCC2)nn1)N1CCc2ccccc21,0.119
3,O=C(Nc1ccc2c(c1)OCO2)c1ccc(N2CCCC2)nn1,20.4
4,Nc1nc2c(c(NC(=O)Nc3ccccc3)n1)CCCC2,16.9
5,Nc1nc2c(c(NC(=O)Nc3ccc(Cl)c(Cl)c3)n1)CCCC2,9.83
6,CCOC(=O)c1cc2n(n1)CCCO2,22.1
7,Cc1cccc(N2CCN(S(=O)(=O)CCN)CC2)c1,21.4
8,CCc1c(C)nc(-n2nc(-c3cccs3)cc2N)[nH]c1=O,-5.27
9,Cc1cc(=O)[nH]c(-n2nc(C3CC3)cc2N)n1,29.2
10,CC(C)c1cc(=O)[nH]c(-n2nc(C3CC3)cc2N)n1,58.1
11,c1cncc(CNCCc2cccs2)c1,-9.29
12,O=c1n(Cc2cccc(F)c2)nc2ncccn12,15.8
13,O=c1n(Cc2ccc(F)cc2)nc2ncccn12,24.8
14,O=c1n(Cc2ccccc2F)nc2ncccn12,21
15,CN1C(=O)CCc2cc(NC(=O)C3CC3)ccc21,10.6
16,CN1C(=O)C(C)(C)COc2cc(NS(=O)(=O)c3ccccc3F)ccc21,16.6
17,CC(C)CS(=O)(=O)Nc1ccc2c(c1)OCC(C)(C)C(=O)N2C,50.7
18,CCc1cc(=O)[nH]c2nnc(SCC(=O)NC)n12,14.5
19,CCc1cc(=O)[nH]c2nnc(SCC(=O)NC(C)C)n12,17.6
20,NC(=O)CSc1nnc2[nH]c(=O)c3c(n12)CCCC3,-12.6
21,COC(=O)CSc1nnc2[nH]c(=O)c3c(n12)CCCC3,-13.8
22,CCCNC(=O)CSc1nnc2[nH]c(=O)c3c(n12)CCCC3,12.2
23,COc1nn(C)cc1C(=O)N1CCC(C)CC1,26.1
24,O=C(Nc1ncnc2c1CCC2)c1ccc2c(c1)OCO2,1.01

row,SMILES,cytotoxicity at 70.5 h [%]
1,Cc1cnc2c(c1NCc1cccnc1)c(=O)n(C)c(=O)n2C,-0.599
2,CCc1cnc2c(c1Nc1ccc3c(c1)OCO3)c(=O)n(C)c(=O)n2C,-1.57
3,CNC(=O)Cn1nc(C(C)C)c2cnn(C(C)(C)C)c2c1=O,25.5
4,COc1ccc(CCC(=O)NCc2cc(C)on2)cc1,8.95
5,Cc1cnc2n(c1=O)C(CC(=O)NCc1ccc(Cl)cc1)CS2 (configuration not stated),-5.3
6,Cc1cnc2n(c1=O)C(CC(=O)NCc1ccco1)CS2 (configuration not stated),-0.737
7,CCCc1cc(=O)[nH]c2nnc(SCC(=O)NC(C)(C)C)n12,-8.6
8,CCn1cnc2c(cnn2-c2cccc(C)c2C)c1=O,45.8
9,CCCn1cnc2c(cnn2-c2cccc(C)c2C)c1=O,37.7
10,CCCc1cc(=O)n(CC(=O)NC(C)C)c(-n2nc(C)cc2C)n1,-4.73
11,O=C(CSC1=NS(=O)(=O)c2cc(F)ccc2N1)Nc1ccc(Cl)c(Cl)c1,19.7
12,COCC(=O)NCc1nn(CCN2CCCC2)c(=O)c2ccccc12,29
13,CCOC(=O)NCc1nn(CCN2CCCC2)c(=O)c2ccccc12,1.9
14,Cn1cnnc1SCCCNC(=O)Nc1ncccn1,-2.46
15,COc1cn(CC(N)=O)c(CSc2nccc(C)n2)cc1=O,23.4
16,C=Cc1ccc(CSc2nc3c(c(=O)[nH]2)CN(CCC)CC3)cc1,8.58
17,CC(=O)c1c(C)nn(CC(=O)Nc2ccc(Br)cc2)c1C,4.72
18,CC(C)(C)S(=O)(=O)c1ccc(N2CCN(c3ccccc3)CC2)nn1,-8.92
19,CC(C)(C)S(=O)(=O)c1ccc(N2CCN(c3ccccn3)CC2)nn1,-17.1
20,CCCS(=O)(=O)c1ccc(N2CCN(c3ccccn3)CC2)nn1,2.28
21,COC(=O)CNC(=O)c1sccc1N(C)S(=O)(=O)c1ccc(Cl)cc1,2.69
22,CCN(c1ccsc1C(=O)N1CCCCC1)S(=O)(=O)c1ccccc1,-11.9
23,CCN(CC)c1nc2ccsc2c(=O)n1CCC(=O)NCc1cccs1,-9.85
24,COC(=O)CN1N=C(C(=O)N2CCCC2)S(=O)(=O)c2ccccc21,-4.54

row,SMILES,cytotoxicity at 70.5 h [%]
1,COc1ncc(C(=O)NCc2ccc(Br)cc2)cn1,-2.74
2,O=c1c(S(=O)(=O)N2CCCC2)cccn1Cc1ccccc1Cl,-6.09
3,O=c1[nH]c2c(-c3ccccn3)nsc2c(=O)n1CC1CCCO1 (configuration not stated),-11.7
4,Cc1cc(C)n(-c2ccnc(N3CCC(C(=O)N4CCCC4)CC3)n2)n1,-4.06
5,COc1ccc(OC)c(C(O)CN2CCN(c3cccc(C)c3)CC2)c1 (configuration not stated),7.32
6,O=C(O)C1CCN(c2nc3c(-c4ccccc4F)csc3c(=O)[nH]2)CC1,-0.14
7,COCCCNC(=O)Cc1cc(-c2ccc3c(c2)OCO3)on1,13.4
8,COc1nn(C)cc1-c1nnc(SCc2cccnc2)n1C,-5.69
9,CCOc1nn(CC)cc1-c1nnc(SCc2ccccn2)n1C,-6.8
10,CC(=O)N1C[C@H]2CCCN(c3ncc(C)cn3)[C@H]2C1,-11.8
11,Cc1cnc(N2CCC[C@@H]3CN(S(C)(=O)=O)C[C@@H]32)nc1,-14.9
12,O=C(CCO)N1CC2(CCN(c3ccccc3)C2)C1,-1.72
13,CC(C)NC(=O)N1CCC2(CCCO2)C1 (configuration not stated),14.2
14,CC(C)n1ncc2cc(NC(=O)N3CCC(C(N)=O)C3)cnc21 (configuration not stated),16.7
15,Cc1nnc(CN(C)C2CCN(CCc3ccccn3)CC2)o1,-4.31
16,CCN1CCN(C(=O)c2ccc(=O)n(C)c2)c2ccccc21,-3.86
17,O=C(NCC(=O)N1CCCC1)c1nn(-c2ccccc2F)cc1O,3.63
18,O=C(c1nn(-c2ccccc2F)cc1O)N1CCCCC1,-7.27
19,COc1ccccc1C(=O)NS(=O)(=O)c1cccc(C#N)c1,-7.53
20,CC(C)Oc1ncccc1CNC(=O)NC1CCOc2ccccc21 (configuration not stated),8.32
21,COc1cc(C(=O)NS(=O)(=O)c2ccc(C#N)cc2)ccc1C,-5.03
22,COc1cc(C(=O)NS(=O)(=O)c2cccc(C#N)c2)cc(OC)c1C,-9.63
23,COc1ccc(C(=O)NS(=O)(=O)c2cccc(C#N)c2)cc1,13.5
24,Cc1cnn(CC2CN(Cc3nnc(C4CC4)n3C)CCO2)c1 (configuration not stated),-4.23

row,SMILES,cytotoxicity at 70.5 h [%]
1,NC(=O)NCC1CCCCN1Cc1nc(-c2ccco2)no1 (configuration not stated),-9.61
2,O=C1NCCN1C1CCCN(Cc2coc(-c3cccs3)n2)C1 (configuration not stated),-6.11
3,O=C(N1CCCC(n2cncn2)C1)C1(c2cccc(F)c2)CCC1 (configuration not stated),-8.35
4,Cc1ccc(-n2nnc(C(=O)NCC(F)(F)F)c2C2CC2)cc1,-5.02
5,CC(=O)N(Cc1noc(C2CC2)n1)C1CCN(Cc2ccccn2)C1 (configuration not stated),-9.44
6,Cc1ccc(-n2nnc(C(=O)NCC3(CO)CC3)c2C2CC2)cc1,-4.67
7,O=C(c1cc2c(s1)CCC2)N1CCCC1Cn1cccn1 (configuration not stated),-1.69
8,O=C(N1CCCC(n2cncn2)C1)C1(c2cccc(F)c2)CCCC1 (configuration not stated),16.5
9,CCc1ncncc1C(=O)N1CCN(Cc2cscn2)CC1,-3.97
10,O=C(c1cc2c(s1)CCOC2)N1CCCCC1Cn1cccn1 (configuration not stated),-7.81
11,CC(=O)N(Cc1noc(C2CC2)n1)C1CCN(Cc2ccccc2)C1 (configuration not stated),-5.69
12,c1sc(C2CCCCC2)nc1CN1CCn2c(nnc2C2CC2)C1,-3.37
13,O=C(CN1CC(n2cccn2)C1)NCCCN1CCCC1=O,22.2
14,CC(C)c1ncc2c(n1)CN(Cc1nc(-c3cccnc3)no1)CC2,13.2
15,Cc1c(C(=O)N2CCCC2c2cnn(C)c2)cnn1-c1ccccc1 (configuration not stated),17.9
16,O=C(NCCNc1ncccn1)C1CCCC1,15.4
17,O=C(c1cc(C2CC2)[nH]n1)N1CCN(Cc2ccccc2)CC1,-4.29
18,O=C(c1cc(C2CC2)[nH]n1)N1CCN(Cc2ccc(Cl)cc2)CC1,12.5
19,Cc1nnc2n1CCN(Cc1csc(COc3ccccc3)n1)C2,-7.26
20,NC(=O)C1CN(C(=O)Nc2ccccc2SC2CCCC2)CCO1 (configuration not stated),-3.34
21,COCCOc1cccc(C(=O)N2CCCC(n3ccnc3)C2)c1 (configuration not stated),-4.62
22,N#CCCNC(=O)CN1CC(n2cccn2)C1,-1.56
23,Cc1ccc(NC2CCN(C(=O)CCc3ccncc3)CC2)nn1,-7.44
24,c1ccc2oc(CCCN3CCCCC3Cn3cncn3)nc2c1 (configuration not stated),-7.94

row,SMILES,cytotoxicity at 70.5 h [%]
1,O=C(CN1CC(n2cccn2)C1)NCCC1=CCCCC1,-6.23
2,CC(C)c1ncc2c(n1)CN(Cc1nc(-c3ccco3)no1)CC2,-8.2
3,CN1CCOC(CN(C(=O)COc2ccccc2)c2nccs2)C1 (configuration not stated),-4
4,CC(C)c1ncc2c(n1)CN(Cc1nc(-c3ccccn3)no1)CC2,-6.83
5,Cc1nn(C)c(C)c1C1CCCN1Cc1nc(-c2cccs2)no1 (configuration not stated),-2
6,CC1CN(CC(=O)NCc2cccs2)CCN1c1nccs1 (configuration not stated),-10.4
7,Cc1nn(C)c(Cl)c1C1CCCN1Cc1nc(-c2ccco2)no1 (configuration not stated),-6.17
8,CCc1ncc2c(n1)CN(Cc1nc(-c3cccs3)no1)CC2,-13
9,c1ccc2oc(CN3CCCC3Cn3cncn3)nc2c1 (configuration not stated),-6.61
10,Cc1cnn(CC2CCCN2Cc2nnc(C(C)C)o2)c1 (configuration not stated),23
11,Cn1ncc2c(N3CCN(C(=O)c4ccsc4)CC3)ncnc21,-4.15
12,COc1ccc(Cl)cc1C(=O)NCCNc1cnccn1,-3.57
13,Cn1ccc(C(=O)N2CCN(c3nccs3)CC2)cc1=O,2.52
14,COc1cc(CNCc2ccnc(N3CCOCC3)c2)cc(OC)c1,17.7
15,c1csc(-c2noc(C3CNC3)n2)c1,-8.98
16,Clc1cccnc1OC1CCNCC1,22.1
17,N#Cc1cccnc1OC1CCNCC1,37.8
18,Cc1noc([C@]23COC[C@H]2CN(C(C)C)C3)n1,1.38
19,Cc1cnc(N2CCC[C@@H]3CN(CC(=O)N(C)C)C[C@@H]32)nc1,-6.11
20,Cc1ccc(N2C[C@@H]3CN(Cc4ccoc4)CCO[C@@H]3C2)nn1,10.2
21,OCCN1CC2(CCN(c3ccccc3)C2)C1,0.92

# Reference: ChEMBL document CHEMBL3507680, “University of Dundee, Gates Library screen for HepG2 cell viability”
